Reference: ChEMBL document CHEMBL3621178, “Antidiabetic effect of novel benzenesulfonylureas as PPAR-γ agonists and their anticancer effect” (Bioorg Med Chem Lett, 2015)
The source made the active and inactive calls. The rule behind the calls is not given here.

How the values were obtained:
Rattus norvegicus [1] = test: Toxicity in STZ-induced diabetic Wistar rat model assessed as increase in body weight at 30 mg/kg, po repeated for 15 days […]; type: organism-based; conditions: in vivo, 360 h
[2] = target: T1, Peroxisome proliferator-activated receptor gamma (Homo sapiens) (UniProt P37231); test: Agonist activity at PPARgamma (unknown origin) expressed in HEK293 cells assessed as receptor transactivation at 10 uM incubated for 24 hrs by luciferase reporter gene assay; type: cell-based
T1 sequence (whole entry): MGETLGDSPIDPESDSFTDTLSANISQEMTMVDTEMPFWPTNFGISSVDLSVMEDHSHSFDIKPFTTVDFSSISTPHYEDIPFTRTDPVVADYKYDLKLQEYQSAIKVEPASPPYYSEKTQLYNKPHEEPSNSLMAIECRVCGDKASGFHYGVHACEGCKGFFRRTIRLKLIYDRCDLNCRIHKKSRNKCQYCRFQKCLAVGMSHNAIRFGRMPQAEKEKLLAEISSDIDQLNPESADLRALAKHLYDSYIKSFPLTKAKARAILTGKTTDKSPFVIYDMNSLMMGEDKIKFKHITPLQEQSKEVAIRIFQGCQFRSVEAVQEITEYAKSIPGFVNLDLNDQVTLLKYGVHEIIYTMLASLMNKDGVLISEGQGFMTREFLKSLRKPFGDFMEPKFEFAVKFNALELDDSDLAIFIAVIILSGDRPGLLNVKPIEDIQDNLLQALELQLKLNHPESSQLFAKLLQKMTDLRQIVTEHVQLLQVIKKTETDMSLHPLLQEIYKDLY

Rattus norvegicus [3] = test: Antidiabetic activity in Wistar rat assessed as reduction in blood glucose level at 30 mg/kg, po dosed 30 mins before glucose challenge and measured 30 and 60 mins post glucose challenge by OGTT method; type: functional, organism-based
Rattus norvegicus [4] = test: Antidiabetic activity in STZ-induced diabetic Wistar rat model assessed as reduction in blood glucose level at 30 mg/kg, po repeated for 15 days by GOD-POD method; type: functional, organism-based
3T3-L1 = test: Increase in PPARgamma mRNA expression in mouse 3T3L1 cells at 10 uM incubated for 24 hrs by RT-PCR method; type: functional
Rattus norvegicus [5] = test: Antidiabetic activity in STZ-induced diabetic Wistar rat model assessed as reduction in blood glucose level at 36 mg/kg, po repeated for 15 days by GOD-POD method; type: functional, organism-based
Rattus norvegicus [6] = test: Antidiabetic activity in Wistar rat assessed as reduction in blood glucose level at 36 mg/kg, po dosed 30 mins before glucose challenge and measured 30 and 60 mins post glucose challenge by OGTT method; type: functional, organism-based
Rattus norvegicus [7] = test: Toxicity in STZ-induced diabetic Wistar rat model assessed as increase in body weight at 36 mg/kg, po repeated for 15 days […]; type: organism-based; conditions: in vivo, 360 h

Row | Activity [2] | Structure (SMILES) | Activity (Rattus norvegicus [1]) | Activity (Rattus norvegicus [3]) | Activity (Rattus norvegicus [4]) | fold change (FC) (3T3-L1) | Activity (Rattus norvegicus [5]) | Activity (Rattus norvegicus [6]) | Activity (Rattus norvegicus [7])
1 | Active | COc1ccc(Cl)cc1C(=O)NCCc1ccc(S(=O)(=O)NC(=O)NC2CCCCC2)cc1 [GLYBURIDE] | Toxic | Active | Active | 1.01 |  |  | 
2 | Active | CN(C)c1ccc(C2CC(c3ccco3)=NN2c2ccc(S(=O)(=O)NC(=O)NCc3ccccc3)cc2)cc1 (stereo not given) | Non-toxic | Active | Active |  |  |  | 
3 | Active | Cc1ccccc1NC(=O)NS(=O)(=O)c1ccc(N2N=C(c3cc4ccccc4oc3=O)CC2c2ccc(N(C)C)cc2)cc1 (stereo not given) | Non-toxic | Active | Active | 1.13 |  |  | 

More lines, now with the values behind:

Row | Structure (SMILES) | Activity [2] | Activity (Rattus norvegicus [1]) | Activity (Rattus norvegicus [3]) | Activity (Rattus norvegicus [4]) | fold change (FC) (3T3-L1) | Activity (Rattus norvegicus [5]) | Activity (Rattus norvegicus [6]) | Activity (Rattus norvegicus [7])
4 | Cc1ccccc1NC(=O)NS(=O)(=O)c1ccc(N2N=C(c3ccco3)CC2c2ccc(N(C)C)cc2)cc1 (stereo not given) | Active | Non-toxic | Active | Active |  |  |  | 
5 | COc1ccc(C2CC(c3cc4ccccc4oc3=O)=NN2c2ccc(S(=O)(=O)NC(=S)NCc3ccccc3)cc2)cc1 (stereo not given) | Active | Non-toxic | Active | Active |  |  |  | 
6 | COc1ccc(C2CC(c3ccco3)=NN2c2ccc(S(=O)(=O)NC(=O)Nc3ccccc3C)cc2)cc1 (stereo not given) |  |  | Active |  |  |  |  | 
7 | COc1ccc(NC(=O)NS(=O)(=O)c2ccc(N3N=C(c4ccco4)CC3c3ccc(N(C)C)cc3)cc2)cc1 (stereo not given) |  |  | Active |  |  |  |  | 
8 | CN(CCOc1ccc(CC2SC(=O)NC2=O)cc1)c1ccccn1 (stereo not given) [ROSIGLITAZONE] | Active |  |  |  | 1.52 | Active | Active | Toxic
9 | COc1ccc(NC(=S)NS(=O)(=O)c2ccc(N3N=C(c4ccco4)CC3c3ccc(N(C)C)cc3)cc2)cc1 (stereo not given) |  |  | Active |  |  |  |  | 
